Laboratory results published in US20260226068A1, “IMIDAZOTRIAZINE IL-17A MODULATORS AND USES THEREOF” (DICE ALPHA, INC., priority 2023, published 2026).

Columns and labels:
IL-17A/A = molecular target: T1, IL-17A/A (Homo sapiens, UniProt Q16552); experiment: IL-17A/A HEK-Blue cell assay (SEAP reporter); format: cell-based; conditions: HEK-Blue IL-17A reporter cells, IL17A/A 5 ng/mL, 20 hours, SEAP read at A630; read-out: HEK-Blue IL17AA (IC50 for IL-17A/A inhibition)
T1 construct: purchased Genscript Z03228
T1 sequence (Q16552 24-155): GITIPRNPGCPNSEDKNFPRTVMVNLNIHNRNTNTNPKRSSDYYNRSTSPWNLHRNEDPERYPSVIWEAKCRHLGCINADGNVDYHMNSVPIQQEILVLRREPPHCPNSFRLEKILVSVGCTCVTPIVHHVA

IL-17A/F = molecular target: T2, IL-17A/F (Homo sapiens, UniProt Q16552+Q96PD4); experiment: IL-17A/F HEK-Blue cell assay (SEAP reporter); format: cell-based; conditions: HEK-Blue IL-17A reporter cells, IL17A/F 5 ng/mL, 20 hours, SEAP read at A630; read-out: HEK-Blue IL17AF (IC50 for IL-17A/F inhibition)
T2 construct: purchased R&D Systems
T2 sequence (Q16552 24-155): T1 sequence (Q16552 24-155)
T2 sequence (Q96PD4 31-163): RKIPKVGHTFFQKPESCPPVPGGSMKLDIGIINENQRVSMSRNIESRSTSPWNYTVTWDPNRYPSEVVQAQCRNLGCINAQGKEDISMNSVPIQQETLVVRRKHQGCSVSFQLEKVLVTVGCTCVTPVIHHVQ

Row | Structure (SMILES) | IC50 (IL-17A/A) | IC50 (IL-17A/F)
1 | Cn1nccc1C(=O)N[C@H](c1cn2nc(C[C@H]3C[C@@H](C(F)(F)F)CNC3=O)c(C3CCOCC3)nc2n1)C1CCC(F)(F)CC1 [Compound 150, N-((1S)-(4,4-difluorocyclohexyl)(2-(((3R,5R)-2-oxo-5-(trifluoromethyl)piperidin-3-yl)methyl)-3-(tetrahydro-2H-pyran-4-yl)imidazo[1,2-b][1,2,4]triazin-6-yl)methyl)-1-methyl-1H-pyrazole-5-carboxamide] | < 100 nM | 100 to 1000 nM
2 | CCn1nccc1C(=O)N[C@H](c1cn2nc(C[C@H]3C[C@@H](C(F)(F)F)NC3=O)c(C3CCOCC3)nc2n1)C1CCC(F)(F)CC1 [Compound 151, N—((S)-(4,4-difluorocyclohexyl)(2-(((3R,5S)-2-oxo-5-(trifluoromethyl)pyrrolidin-3-yl)methyl)-3-(tetrahydro-2H-pyran-4-yl)imidazo[1,2-b][1,2,4]triazin-6-yl)methyl)-1-ethyl-1H-pyrazole-5-carboxamide] | < 100 nM | 100 to 1000 nM
3 | CCn1nccc1C(=O)N[C@H](c1cn2nc(C[C@H]3C[C@@H](C(F)(F)F)NC3=O)c(C3CCOCC3)nc2n1)[C@H]1CC[C@H](C)CC1 [Compound 152, 1-ethyl-N—((S)-((1R,4S)-4-methylcyclohexyl)(2-(((3R,5S)-2-oxo-5-(trifluoromethyl)pyrrolidin-3-yl)methyl)-3-(tetrahydro-2H-pyran-4-yl)imidazo[1,2-b][1,2,4]triazin-6-yl)methyl)-1H-pyrazole-5-carboxamide] | < 100 nM | 100 to 1000 nM
4 | O=C(N[C@H](c1cn2nc(C[C@H]3C[C@@H](C(F)(F)F)CNC3=O)c(C3CCOCC3)nc2n1)C1CCC(F)(F)CC1)c1ccn[nH]1 [Compound 154, N-((1S)-(4,4-difluorocyclohexyl)(2-(((3R,5R)-2-oxo-5-(trifluoromethyl)piperidin-3-yl)methyl)-3-(tetrahydro-2H-pyran-4-yl)imidazo[1,2-b][1,2,4]triazin-6-yl)methyl)-1H-pyrazole-5-carboxamide] | < 100 nM | > 1000 nM
5 | CCn1nccc1C(=O)N[C@H](c1cn2nc(C[C@H]3C[C@H](C(F)(F)F)CNC3=O)c(C3CCOCC3)nc2n1)[C@H]1CC[C@H](C)CC1 [Compound 155, 1-ethyl-N-((1S)-((1r,4S)-4-methylcyclohexyl)(2-(((3R,5S)-2-oxo-5-(trifluoromethyl)piperidin-3-yl)methyl)-3-(tetrahydro-2H-pyran-4-yl)imidazo[1,2-b][1,2,4]triazin-6-yl)methyl)-1H-pyrazole-5-carboxamide] | < 100 nM | 100 to 1000 nM
6 | CCn1nccc1C(=O)N[C@H](c1cn2nc(C[C@H]3C[C@H](C(F)(F)F)CNC3=O)c(C(C)(C)C)nc2n1)C1CCC(F)(F)CC1 [Compound 156, N-((1S)-(4,4-difluorocyclohexyl)(3-(tert-butyl)-2-(((3R,5S)-2-oxo-5-(trifluoromethyl)piperidin-3-yl)methyl)imidazo[1,2-b][1,2,4]triazin-6-yl)methyl)-1-ethyl-1H-pyrazole-5-carboxamide] | < 100 nM | > 1000 nM
7 | CCn1nccc1C(=O)N[C@H](c1cn2nc(C[C@H]3C[C@@H](C(F)(F)F)CNC3=O)c(N3CCO[C@H](C)C3)nc2n1)[C@H]1CC[C@H](C)CC1 [Compound 157, 1-ethyl-N—((S)-((1r,4S)-4-methylcyclohexyl)(3-((R)-2-methylmorpholino)-2-(((3R,5R)-2-oxo-5-(trifluoromethyl)piperidin-3-yl)methyl)imidazo[1,2-b][1,2,4]triazin-6-yl)methyl)-1H-pyrazole-5-carboxamide] | < 100 nM | < 100 nM
8 | CCn1nccc1C(=O)N[C@H](c1cn2nc(C[C@H]3C[C@@H](C(F)(F)F)CNC3=O)c(N3CCO[C@@H](C)C3)nc2n1)[C@H]1CC[C@H](C)CC1 [Compound 158, 1-ethyl-N—((S)-((1r,4S)-4-methylcyclohexyl)(3-((S)-2-methylmorpholino)-2-(((3R,5R)-2-oxo-5-(trifluoromethyl)piperidin-3-yl)methyl)imidazo[1,2-b][1,2,4]triazin-6-yl)methyl)-1H-pyrazole-5-carboxamide] | < 100 nM | 100 to 1000 nM
9 | CCn1nccc1C(=O)N[C@H](c1cn2nc(C[C@H]3C[C@H](C(F)(F)F)CNC3=O)c(C(C)(C)F)nc2n1)C1CCC(F)(F)CC1 [Compound 161, N-((1S)-(4,4-difluorocyclohexyl)(3-(2-fluoropropan-2-yl)-2-(((3R,5S)-2-oxo-5-(trifluoromethyl)piperidin-3-yl)methyl)imidazo[1,2-b][1,2,4]triazin-6-yl)methyl)-1-ethyl-1H-pyrazole-5-carboxamide] | < 100 nM | > 1000 nM
10 | CCn1nccc1C(=O)N[C@H](c1cn2nc(C[C@H]3C[C@@H](C(F)(F)F)CNC3=O)c(N3CCC4(CCOCC4)C3)nc2n1)C1CCC(F)(F)CC1 [Compound 162, N—((S)-(4,4-difluorocyclohexyl)(2-(((3R,5R)-2-oxo-5-(trifluoromethyl)piperidin-3-yl)methyl)-3-(8-oxa-2-azaspiro[4.5]decan-2-yl)imidazo[1,2-b][1,2,4]triazin-6-yl)methyl)-1-ethyl-1H-pyrazole-5-carboxamide] | < 100 nM | 100 to 1000 nM
11 | CCn1nccc1C(=O)N[C@H](c1cn2nc(C[C@H]3C[C@@H](C(F)(F)F)CNC3=O)c(C3(C)CCOCC3)nc2n1)C1CCC(F)(F)CC1 [Compound 164, N-((1S)-(4,4-difluorocyclohexyl)(3-(4-methyltetrahydro-2H-pyran-4-yl)-2-(((3R,5R)-2-oxo-5-(trifluoromethyl)piperidin-3-yl)methyl)imidazo[1,2-b][1,2,4]triazin-6-yl)methyl)-1-ethyl-1H-pyrazole-5-carboxamide] | < 100 nM | 100 to 1000 nM
12 | CCc1nc2nc([C@@H](NC(=O)c3ccnn3CC)C3CCC(F)(F)CC3)cn2nc1C[C@H]1C[C@@H](C(F)(F)F)CNC1=O [Compound 167, N-((1S)-(4,4-difluorocyclohexyl)(3-ethyl-2-(((3R,5R)-2-oxo-5-(trifluoromethyl)piperidin-3-yl)methyl)imidazo[1,2-b][1,2,4]triazin-6-yl)methyl)-1-ethyl-1H-pyrazole-5-carboxamide] | < 100 nM | 100 to 1000 nM
13 | CCn1nccc1C(=O)N[C@H](c1cn2nc(C[C@H]3C[C@@H](C(F)(F)F)CNC3=O)c(CC3COC3)nc2n1)C1CCC(F)(F)CC1 [Compound 168, N-((1S)-(4,4-difluorocyclohexyl)(3-(oxetan-3-ylmethyl)-2-(((3R,5R)-2-oxo-5-(trifluoromethyl)piperidin-3-yl)methyl)imidazo[1,2-b][1,2,4]triazin-6-yl)methyl)-1-ethyl-1H-pyrazole-5-carboxamide] | < 100 nM | 100 to 1000 nM
14 | CCn1nccc1C(=O)N[C@H](c1cn2nc(C[C@H]3C[C@@H](C(F)(F)F)CNC3=O)c(C(C)(C)C3CCOCC3)nc2n1)C1CCC(F)(F)CC1 [Compound 169, N-((1S)-(4,4-difluorocyclohexyl)(2-(((3R,5R)-2-oxo-5-(trifluoromethyl)piperidin-3-yl)methyl)-3-(2-(tetrahydro-2H-pyran-4-yl)propan-2-yl)imidazo[1,2-b][1,2,4]triazin-6-yl)methyl)-1-ethyl-1H-pyrazole-5-carboxamide] | < 100 nM | > 1000 nM
